In patent publication US20250074911A1, “MACROCYCLIC BTK INHIBITORS” (Crossfire Oncology Holding B.V., priority 2021, published 2025):
pIC50, pKd: −log10 of the molar value. Where “and” joins values, the source holds several entries; their conditions need not be identical. Equal values may be shown once. Blank lines part the entries; values can stand above or below the molecule they belong to.

Key:
[1] = target: full-length wt-BTK enzyme (Homo sapiens (Human), UniProt Q06187); assay: Biochemical kinase assay wt-BTK (IMAP)
Sequence of full-length wt-BTK enzyme (Q06187 whole entry): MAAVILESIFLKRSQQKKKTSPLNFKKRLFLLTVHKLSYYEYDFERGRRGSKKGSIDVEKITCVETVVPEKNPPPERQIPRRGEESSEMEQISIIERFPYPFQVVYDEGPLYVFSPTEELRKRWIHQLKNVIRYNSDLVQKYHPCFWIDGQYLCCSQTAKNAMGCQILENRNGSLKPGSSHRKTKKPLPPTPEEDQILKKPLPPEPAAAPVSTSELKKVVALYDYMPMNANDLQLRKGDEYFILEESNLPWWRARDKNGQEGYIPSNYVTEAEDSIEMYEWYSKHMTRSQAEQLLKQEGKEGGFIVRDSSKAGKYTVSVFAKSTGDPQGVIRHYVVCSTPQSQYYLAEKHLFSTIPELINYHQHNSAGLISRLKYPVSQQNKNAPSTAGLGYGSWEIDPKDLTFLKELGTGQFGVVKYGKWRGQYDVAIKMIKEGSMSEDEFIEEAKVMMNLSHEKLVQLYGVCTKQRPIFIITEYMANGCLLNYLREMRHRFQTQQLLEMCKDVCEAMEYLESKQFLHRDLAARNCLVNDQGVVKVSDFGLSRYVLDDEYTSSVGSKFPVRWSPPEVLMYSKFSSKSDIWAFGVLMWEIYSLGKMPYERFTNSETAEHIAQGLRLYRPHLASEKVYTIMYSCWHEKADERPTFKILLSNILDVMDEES
Outline: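 Compound and enzyme (final 1.2 nM) were pre-incubated for 1 h at RT, after which the reaction was started with 4 μM ATP plus 50 nM fluorescein-MBP substrate peptide. After 2 h in the dark, the IMAP progressive binding reagent stopped the reaction, and phosphorylation was read by fluorescence polarization.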

[2] = target: full-length BTK C481S enzyme (Homo sapiens (Human), UniProt Q06187, C481S); assay: Biochemical kinase assay BTK C481S (IMAP)
Sequence of full-length BTK C481S enzyme (Q06187 whole entry C481S): as the sequence (Q06187 whole entry) above, with C481S counted along it
Outline: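 IC50 values come from IMAP fluorescence polarization after quenching with progressive binding solution. The reaction ran 2 h at room temperature in the dark with 1.2 nM full-length C481S enzyme, 7 μM ATP and 50 nM fluorescein-labelled MBP-derived peptide, following a 1 h dark pre-incubation of compound with enzyme.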

[3] = tested on: wt-REC-1 mantle cell lymphoma cells; assay: Cell proliferation assay wt-REC-1 (ATPlite, 72 hours); assay type: cell-based; conditions: 72 h; read-out: IC50 wt-REC-1
Outline: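 Luminescent viability read over 72 h, start-of-incubation signal recorded separately to separate growth from cell death. Percentage growth referenced to compound-free 0.3% DMSO wells; IC50 from 4-parameter logistic fit.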

REC-1 T474I cell lines = assay: Cell proliferation assay REC-1 BTK T474I knock-in cells (ATPlite, 72 hours); assay type: cell-based; conditions: Homo sapiens, Rec1; 72 hours; read-out: IC50 REC-1 T474I
Outline: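 REC-1 cells carrying CRISPR knock-in mutant BTK, single-cell cloned and sequence-confirmed, were exposed to compound for 72 h and read by ATPlite luminescence. Percentage growth was calculated against the signal at the start of incubation and against untreated 0.3% DMSO wells as maximum growth.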

wt-BTK = wt-BTK (Homo sapiens (Human), UniProt Q06187); assay: Binding kinetics measurements (Surface Plasmon Resonance) on wt-BTK; conditions: for pKd: binding affinity by Surface Plasmon Resonance (SPR); for Tau (h) wt-BTK (Act): target residence time, SPR
Sequence of wt-BTK (Q06187 whole entry): as the sequence (Q06187 whole entry) above
Outline: (§1)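 Protein was immobilized on a streptavidin surface at 4° C, then equilibrated in running buffer containing 1% DMSO at 30 μl/min for at least 30 min. Compounds were injected five times at increasing concentrations (3.16-316 nM) at 22° C. Induced-fit binders were fitted with a two-state reaction model.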

BTK C481S = BTK C481S (Homo sapiens (Human), UniProt Q06187, C481S); assay: Binding kinetics measurements (Surface Plasmon Resonance) on BTK C481S; conditions: for pKd: binding affinity by Surface Plasmon Resonance (SPR); for Tau (h) BTK C418S (Act): target residence time for BTK C481S, SPR
Sequence of BTK C481S (Q06187 whole entry C481S): as the sequence (Q06187 whole entry) above, with C481S counted along it
Outline: as §1

BTK T316A = BTK T316A (Homo sapiens (Human), UniProt Q06187, T316A); assay: Binding kinetics measurements (Surface Plasmon Resonance) on BTK T316A; conditions: for pKd: binding affinity by Surface Plasmon Resonance (SPR); for Tau (h) BTK T316A (Act): target residence time, SPR
Sequence of BTK T316A (Q06187 whole entry T316A): as the sequence (Q06187 whole entry) above, with T316A counted along it
Experimental: Binding kinetics measurements on wt-BTK, BTK […], BTK […], BTK […] and BTK […] (Surface Plasmon Resonance) Streptavidin-coated chips (Cat. No. BR100531), disposables and maintenance kits for Biacore were purchased from Cytiva (Eindhoven, The Netherlands). […] Remaining streptavidin was blocked with biocytin. Immobilization was performed at 4° C. Subsequent assay steps were conducted at 22° C. After changing buffer to Biacore buffer with 1% (v/v) dimethylsulfoxide (DMSO), a pre-run was performed for a period of at least 30 min at a flow rate of 30 μl/min to obtain a stable surface. The kinetic constants of the compounds were determined with single cycle kinetics with five consecutive injections with an increasing compound concentration with ranges of 3.16-316 nM. […] To circumvent problems of mass transport limitation, a flow rate of 30 μl/min was used. A blank run with the same conditions was performed before the compound was injected. The SPR sensorgrams were analyzed with Biacore Evaluation Software by using a method of double referencing. First the reference channel was subtracted from the channel containing immobilized protein. Subsequently, the reference curve obtained with buffer injections was subtracted. […] Compounds that bound according to an induced fit model were fitted with a two-state reaction model. The kinetic constants (ka, […], KD) of duplicates were geometrically averaged. […] Target residence for an induced fit model was calculated as described (Tummino and Copeland, 2008).

BTK T474I = BTK T474I (Homo sapiens (Human), UniProt Q06187, T474I); assay: Binding kinetics measurements (Surface Plasmon Resonance) on BTK T474I; conditions: for pKd: binding affinity by Surface Plasmon Resonance (SPR); for Tau (h) BTK T474I (Act): target residence time, SPR
Sequence of BTK T474I (Q06187 whole entry T474I): as the sequence (Q06187 whole entry) above, with T474I counted along it
Outline: as §1

BTK T474S = BTK T474S (Homo sapiens (Human), UniProt Q06187, T474S); assay: Binding kinetics measurements (Surface Plasmon Resonance) on BTK T474S; conditions: for residence time: SPR binding kinetics, BTK T474S, read-out: Tau (h) BTK T474S (Act), target residence time (converted); for pKd: binding affinity by Surface Plasmon Resonance (SPR)
Sequence of BTK T474S (Q06187 whole entry T474S): as the sequence (Q06187 whole entry) above, with T474S counted along it
Outline: as §1

[4] = tested on: wt-TMD8 diffuse large B-cell lymphoma cells; assay: Cell proliferation assay wt-TMD8 (ATPlite, 120 hours); assay type: cell-based; conditions: B-cell; wt-TMD8 cells, 120 hours, ATPlite; read-out: IC50 wt-TMD8
Outline: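 Readout is percentage growth from ATPlite 1Step luminescence after 5 days (120 h) compound treatment of wt-TMD8 lymphoma cells (1600/well, RPMI-1640 + 10% FBS). Time-zero signal separates growth inhibition from cell kill; 0.3% DMSO wells without compound define maximal growth.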

Structure (SMILES): CN1C/C=C/c2cnc(N)c3c(-c4ccc(C(=O)Nc5cc(C(F)(F)F)ccn5)cc4)nn(c23)[C@@H]2CCC[C@H](C2)NC(=O)C1 [Example 9]
pIC50 [1]: > 8.30
pIC50 [2]: > 8.30
pIC50 [3]: 6.00 to 7.00
pIC50 (REC-1 T474I cell lines): 5.00 to 6.30
pKd (wt-BTK): > 8.30
Tau (h) wt-BTK (Act) (wt-BTK): 1.02 h
pKd (BTK C481S): > 8.30
Tau (h) BTK C418S (Act) (BTK C481S): 2.60 h
pKd (BTK T316A): > 8.30
pKd (BTK T474I): 7.30 to 8.00 and > 8.30
residence time (BTK T474S): 1.53 h
pKd (BTK T474S): > 8.52
pIC50 [4]: > 7.00

Structure (SMILES): CN1C/C=C/c2cnc(N)c3c(-c4ccc(C(=O)Nc5cc(C(F)(F)F)ccn5)cc4)nn(c23)[C@@H]2CCC[C@H](C2)NC(=O)CCC1 [Example 10]
pIC50 [1]: > 8.30
pIC50 [2]: > 8.30
pIC50 [3]: > 7.00
pIC50 (REC-1 T474I cell lines): 5.00 to 6.30
pKd (wt-BTK): > 8.30
Tau (h) wt-BTK (Act) (wt-BTK): 6.77 h
pKd (BTK C481S): > 8.30
Tau (h) BTK C418S (Act) (BTK C481S): 6.76 h
pKd (BTK T316A): > 8.30
Tau (h) BTK T316A (Act) (BTK T316A): 1.76 h
pKd (BTK T474I): > 8.70
residence time (BTK T474S): 9.46 h
pKd (BTK T474S): > 8.52
pIC50 [4]: > 7.00

Structure (SMILES): CN1C/C=C/c2cnc(N)c3c(-c4ccc(C(=O)Nc5cc(C(F)(F)F)ccn5)cc4)nn(c23)[C@@H]2CCC[C@H](C2)NC(=O)CCCC1 [Example 20]
pIC50 [1]: > 8.30
pIC50 [2]: > 8.30
pIC50 [3]: 6.00 to 7.00
pIC50 (REC-1 T474I cell lines): 5.00 to 6.30
pKd (wt-BTK): > 8.30
Tau (h) wt-BTK (Act) (wt-BTK): 2.79 h
pKd (BTK C481S): > 8.30
Tau (h) BTK C418S (Act) (BTK C481S): 1.05 h
pKd (BTK T316A): > 8.30
Tau (h) BTK T316A (Act) (BTK T316A): 2.01 h
pKd (BTK T474I): > 8.70
residence time (BTK T474S): 2.75 h
pKd (BTK T474S): > 8.52
pIC50 [4]: > 7.00

Structure (SMILES): Nc1ncc2c3c1c(-c1ccc(C(=O)Nc4ccccn4)cc1)nn3C1CCC[C@H](C1)NC(=O)CCCCC/C=C/2 [Example 24]
pIC50 [1]: > 8.30
pIC50 [2]: > 8.30
pIC50 [3]: > 7.00
pIC50 (REC-1 T474I cell lines): > 7.00
Tau (h) wt-BTK (Act) (wt-BTK): 4.78 h
Tau (h) BTK C418S (Act) (BTK C481S): 10.68 h
Tau (h) BTK T316A (Act) (BTK T316A): 2.66 h
Tau (h) BTK T474I (Act) (BTK T474I): 1.26 h
residence time (BTK T474S): 3.19 h
pIC50 [4]: > 7.00

Further lines, with some results ahead:

pIC50 [1]: > 8.30
pIC50 [2]: > 8.30
pIC50 [3]: > 7.00
pKd (wt-BTK): > 8.30
Tau (h) wt-BTK (Act) (wt-BTK): 5.24 h
pKd (BTK C481S): > 8.30
Tau (h) BTK C418S (Act) (BTK C481S): 14.35 h
pKd (BTK T316A): > 8.30
Tau (h) BTK T316A (Act) (BTK T316A): 3.60 h
pKd (BTK T474I): > 8.70
Tau (h) BTK T474I (Act) (BTK T474I): 1.12 h
residence time (BTK T474S): 8.71 h
pKd (BTK T474S): > 8.52
pIC50 [4]: > 7.00
Structure (SMILES): CN1C/C=C/c2cnc(N)c3c(-c4ccc(C(=O)Nc5cc(C(F)(F)F)ccn5)cc4)nn(c23)[C@@H]2CCC[C@H](C2)NC(=O)CC1 [Example 17]
pIC50 (REC-1 T474I cell lines): > 7.00

pIC50 [1]: > 8.30
pIC50 [2]: > 8.30
pIC50 [3]: > 7.00
pKd (wt-BTK): > 8.30
Tau (h) wt-BTK (Act) (wt-BTK): 4.34 h
pKd (BTK C481S): > 8.30
Tau (h) BTK C418S (Act) (BTK C481S): 7.53 h
pKd (BTK T316A): > 8.30
Tau (h) BTK T316A (Act) (BTK T316A): 3.89 h
pKd (BTK T474I): > 8.70
residence time (BTK T474S): 3.59 h
pKd (BTK T474S): > 8.52
pIC50 [4]: > 7.00
Structure (SMILES): Nc1ncc2c3c1c(-c1ccc(C(=O)Nc4cc(C(F)(F)F)ccn4)cc1)nn3[C@@H]1CCC[C@H](C1)NC(=O)CCNC/C=C/2 [Example 21]
pIC50 (REC-1 T474I cell lines): 6.30 to 7.00
